Patent publication US12697289B2, “Organic ricinoleate salts as deodorizing agents” (COLONIAL CHEMICAL, INC., priority 2022, dated 2026)

Assay: Deodorization evaluation with GASTEC gas detector tubes (24 hour acetic acid deodorization study)
Details: FIG. 1; GASTEC Detector Tube method; 24 hour equilibration; comparison with industry standard Cola®Quat SME
Description: Deodorization Evaluations with GASTEC Gas Detector Tubes.
The Gas Sampling Pump Kit (GV-100S) and Gas detection tubes are manufactured by GasTec International and purchased through New Star Environmental. The pump provided in the gas sampling pump kit provides a precise vacuum on the tubes and therefore a specific volume of gas. Tubes are pre-calibrated for specific molecules, have a ppm scale on the tube, and show a color change when reacting to the target odor causing molecule. There may be corrections for temperature, humidity, or specific target molecules.
Our exemplary, general method was as follows: • 1. […] Prepare the odorant solution for the experiment. • The concentration will need to be workshopped for each odorant molecule to give an appropriate “untreated” ppm reading • 5. […]
Additionally, the method attempts to control the volume of odorant solution, volume of deodorant solution, total liquid volume, surface area of liquid, volume of headspace, and equilibration time. Ambient temperature and humidity are recorded at the start of equilibration and at the time of measurement. […] The temperature used if correction is necessary is the temperature recorded at measurement. The humidity used if correction is necessary is the humidity recorded before equilibration as this should be the main component of the humidity variations between experiments. […]

## Soyamidopropyl Morpholine Ricinoleate
  reducing odor vapors from acetic acid, compared to Cola®Quat SME standard: compare favorably

## soyamidopropyl dimethylamine ricinoleate
  reducing odor vapors from acetic acid, compared to Cola®Quat SME standard: compare favorably
